In patent publication US20250017907A1, “METHOD FOR PREVENTING AND/OR TREATING LIVER FIBROSIS BY USING 6-METHOXYBENZOXAZOLINONE AND COIX LACHRYMA-JOBI L. EXTRACT COMPRISING 6-METHOXYBENZOXAZOLINONE” (Taichung District Agricultural Research and Extension …, priority 2023, published 2025):

Tests used:
[1] = tested on: TAA-induced liver fibrotic C57BL/6J mice; experiment: Liver histopathological observation (H&E, Sirius Red, IHC staining); assay type: in vivo; details: 6 weeks; for collagen deposition (Sirius Red) / inflammatory infiltration (H&E) / liver structure deformation (H&E) / α-SMA expression (IHC): vs TAA group
Experimental: According to the present invention, animals used in the following examples are described as follows. Male C57BL/6J mice (5-week-old) were from the National Laboratory Animal Center (Taipei, Taiwan), and housed in a temperature-controlled room on a 12 h light-dark cycle with free access to food and drinking water at the Animal Center of the National Yang Ming Chiao Tung University (Taipei, Taiwan). All experiments were approved by Institutional Animal Care and Use Committee of National Yang Ming Chiao Tung University. […]
For tests of CX, mice were randomly divided into the following four groups (n=8, per group): (1) NT group, (2) TAA group (200 mg/kg), (3) CX group (CX20, 20 mg/kg), and (4) CX group (CX50, 50 mg/kg). NT group received pure saline, and other groups intraperitoneally injected with TAA dissolved into saline thrice a week. Moreover, NT group and TAA group also received 5% propylene glycol, while CX groups received CX dissolved into 5% propylene glycol (prepared in 0.9% saline) by oral gavage once per day. […]
The procedure of liver histopathological observation is as follows. After fixation in 10% neutral buffered formalin solution, the liver tissues were embedded with paraffin and then sliced into 4 μm-thickness sections. Pathological sections were examined to assess the change of tissue architecture with the H&E staining kit (CIS-Biotechnology, Taiwan), the condition of collagen deposition with the Sirius Red staining kit (CIS-Biotechnology, Taiwan), and the expression of specific proteins in tissue with the immunohistochemistry kit (Agilent, USA), as well as phospho-SMAD2 (1:100; GeneTex, USA), phospho-SMAD3 (1:100; GeneTex, USA), and α-SMA (1:100; GeneTex, USA) antibodies.
To examine the effects of CX on liver fibrosis, this example established a TAA-induced liver fibrotic C57BL/6J mouse model. FIG. 6 is a schematic diagram of animal experiment design in 6-methoxybenzoxazolinone (6-MBOA) (CX) groups. For animal experiments, 6-week-old C57BL/6J mice were randomly divided into four groups including NT, TAA, CX20 (TAA+20 mg/kg CX), CX50 (TAA+50 mg/kg CX). (n=8 per group). Mice were given intraperitoneal injection of TAA thrice a week to induce liver fibrosis; they also received CX or the vehicle by oral gavage once per day. At the end of animal tests, mice were sacrificed at 12 weeks of age. Six-week-old mice were randomly divided into four groups, namely NT, TAA, CX20 and CX50 (FIG. 6). Among these groups, only the NT group was oral gavaged and administered with vehicle, the TAA group was oral gavaged with vehicle and administered with TAA, and the CX groups were oral gavaged with CX and administered with TAA. Oral gavage was performed once a day while intraperitoneal injection was given thrice a week; both oral gavage and intraperitoneal injection were continuously administered for six weeks. After that, the mice were sacrificed, and their liver tissues and serum were collected for subsequent analyses.

[2] = tested on: TAA-induced liver fibrotic C57BL/6J mice; experiment: Serum TGF-β1 ELISA; assay type: in vivo; details: CX groups (20 and 50 mg/kg oral, 6 weeks); vs TAA group
Experimental: For tests of CX, mice were randomly divided into the following four groups (n=8, per group): (1) NT group, (2) TAA group (200 mg/kg), (3) CX group (CX20, 20 mg/kg), and (4) CX group (CX50, 50 mg/kg). NT group received pure saline, and other groups intraperitoneally injected with TAA dissolved into saline thrice a week. Moreover, NT group and TAA group also received 5% propylene glycol, while CX groups received CX dissolved into 5% propylene glycol (prepared in 0.9% saline) by oral gavage once per day.
To examine the effects of CX on liver fibrosis, this example established a TAA-induced liver fibrotic C57BL/6J mouse model. FIG. 6 is a schematic diagram of animal experiment design in 6-methoxybenzoxazolinone (6-MBOA) (CX) groups. For animal experiments, 6-week-old C57BL/6J mice were randomly divided into four groups including NT, TAA, CX20 (TAA+20 mg/kg CX), CX50 (TAA+50 mg/kg CX). (n=8 per group). […]
The procedure of TGF-β1 enzyme-linked immunosorbent assay (ELISA) is as follows. The level of TGF-β1 was detected in serum by using commercial mouse ELISA kits (Invitrogen, USA) and the working procedure was followed a standard sandwich ELISA protocol. […] After reacted with stop solution, immediately measured the color intensity at 450 nm by ELISA reader (TECAN, Switzerland).

[3] = CX20: 20 mg/kg oral gavage once per day
[4] = CX50: 50 mg/kg oral gavage once per day

## COc1ccc2[nH]c(=O)oc2c1 [CX, 6-methoxybenzoxazolinone]
[1]; [3]
  collagen deposition (Sirius Red): significantly reduced
  inflammatory infiltration (H&E): significantly reduced
  liver structure deformation (H&E): significantly reduced
  α-SMA expression (IHC): significantly reduced
[1]; [4]
  p-SMAD2 expression (IHC): negatively regulated
  p-SMAD3 expression (IHC): negatively regulated
  collagen deposition (Sirius Red): significantly reduced
  inflammatory infiltration (H&E): significantly reduced
  liver structure deformation (H&E): significantly reduced
  α-SMA expression (IHC): significantly reduced
[2]
  upregulation of TGF-β1 in serum caused by TAA (ELISA): significantly reduced
